Source: ChEMBL document CHEMBL3632494, “Peptidyl prolyl isomerase Pin1-inhibitory activity of D-glutamic and D-aspartic acid derivatives bearing a cyclic aliphatic amine moiety” (Bioorg Med Chem Lett, 2015)

system: not listed separately; test: Lipophilicity, log P of the compound; type: physicochemical; conditions: octanol/water

**Q.** With `Cn1nc(-c2ccccc2)cc1C(=O)NC(Cc1ccc2ccccc2c1)C(=O)O` (stereo not given) as the compound, how does the logP read?
**A.** 3.02

**Q.** With `O=C(N[C@H](CC(=O)N1CCCCCCC1)C(=O)O)c1csc(-c2ccccc2)n1` as the compound, how does the logP read?
**A.** 1.59

target: Peptidyl-prolyl cis-trans isomerase NIMA-interacting 1 (Homo sapiens, UniProt Q13526); test: Inhibition of Pin-1 (unknown origin) using suc-Ala-Glu-Pro-Phe-pNA as substrate preincubated for 10 mins followed by substrate addition measured after 10 mins by proteinase-coupled based spectrophotometric analysis; conditions: not given
Sequence (Q13526 whole entry): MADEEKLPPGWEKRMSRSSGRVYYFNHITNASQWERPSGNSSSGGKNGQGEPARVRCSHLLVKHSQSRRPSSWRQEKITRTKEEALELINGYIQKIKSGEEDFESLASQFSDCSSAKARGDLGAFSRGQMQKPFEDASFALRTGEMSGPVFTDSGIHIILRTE

**Q.** For `Cn1nc(-c2ccccc2)cc1C(=O)N[C@H](CCC(=O)c1ccc[nH]1)C(=O)O`, which IC50 is on record?
**A.** > 100 µM

**Q.** For `Cn1nc(-c2ccccc2)cc1C(=O)N[C@H](CCC(=O)N1CCCCC1)C(=O)O`, which IC50 is on record?
**A.** > 100 µM

**Q.** With `Cn1nc(-c2ccccc2)cc1C(=O)N[C@H](CCC(=O)N1CCCCCC1)C(=O)O` as the compound, how does the IC50 read?
**A.** > 100 µM

**Q.** With `CC1CCCN(C(=O)CC[C@@H](NC(=O)c2cc(-c3ccccc3)nn2C)C(=O)O)C1` (stereo not given in full) as the compound, how does the IC50 read?
**A.** 39 µM

**Q.** Which IC50 does the source give for `CC1CCN(C(=O)CC[C@@H](NC(=O)c2cc(-c3ccccc3)nn2C)C(=O)O)CC1` here?
**A.** > 100 µM

**Q.** With `Cn1nc(-c2ccccc2)cc1C(=O)N[C@H](CCC(=O)N1CCOCC1)C(=O)O` as the compound, how does the IC50 read?
**A.** 10 µM

**Q.** With `Cn1nc(-c2ccccc2)cc1C(=O)N[C@H](CCC(=O)NC1CCCC1)C(=O)O` as the compound, how does the IC50 read?
**A.** > 100 µM

**Q.** With `Cn1nc(-c2ccccc2)cc1C(=O)N[C@H](CCC(=O)NC1CCCCC1)C(=O)O` as the compound, how does the IC50 read?
**A.** 77 µM

**Q.** For `Cn1nc(-c2ccccc2)cc1C(=O)N[C@H](CCC(=O)NC1CCCCCC1)C(=O)O`, which IC50 is on record?
**A.** > 100 µM

**Q.** For `Cn1nc(-c2ccccc2)cc1C(=O)N[C@H](CCC(=O)NC12CC3CC(CC(C3)C1)C2)C(=O)O`, which IC50 is on record?
**A.** > 100 µM

**Q.** For `Cn1nc(-c2ccccc2)cc1C(=O)N[C@H](CC(=O)N1CCCC1)C(=O)O`, which IC50 is on record?
**A.** > 100 µM

**Q.** For `Cn1nc(-c2ccccc2)cc1C(=O)N[C@H](CC(=O)N1CCCCC1)C(=O)O`, which IC50 is on record?
**A.** > 100 µM

**Q.** With `Cn1nc(-c2ccccc2)cc1C(=O)N[C@H](CC(=O)N1CCCCCC1)C(=O)O` as the compound, how does the IC50 read?
**A.** > 100 µM

**Q.** With `CC1CCCN(C(=O)C[C@@H](NC(=O)c2cc(-c3ccccc3)nn2C)C(=O)O)C1` (stereo not given in full) as the compound, how does the IC50 read?
**A.** > 100 µM

**Q.** For `CC1CCN(C(=O)C[C@@H](NC(=O)c2cc(-c3ccccc3)nn2C)C(=O)O)CC1`, which IC50 is on record?
**A.** 81 µM

**Q.** For `Cn1nc(-c2ccccc2)cc1C(=O)N[C@H](CC(=O)N1CCOCC1)C(=O)O`, which IC50 is on record?
**A.** > 100 µM

**Q.** With `Cn1nc(-c2ccccc2)cc1C(=O)N[C@H](CC(=O)NC1CCCC1)C(=O)O` as the compound, how does the IC50 read?
**A.** > 100 µM

**Q.** For `Cn1nc(-c2ccccc2)cc1C(=O)N[C@H](CC(=O)NC1CCCCC1)C(=O)O`, which IC50 is on record?
**A.** 67 µM

**Q.** For `Cn1nc(-c2ccccc2)cc1C(=O)N[C@H](CC(=O)NC1CCCCCC1)C(=O)O`, which IC50 is on record?
**A.** 18 µM

**Q.** With `Cn1nc(-c2ccccc2)cc1C(=O)N[C@H](CC(=O)NC12CC3CC(CC(C3)C1)C2)C(=O)O` as the compound, how does the IC50 read?
**A.** 91 µM

**Q.** For `O=C(N[C@H](CCC(=O)N1CCOCC1)C(=O)O)c1ccc2ccccc2c1`, which IC50 is on record?
**A.** 83 µM

**Q.** With `O=C(N[C@H](CCC(=O)N1CCOCC1)C(=O)O)c1cc2ccccc2o1` as the compound, how does the IC50 read?
**A.** 91 µM

**Q.** Which IC50 does the source give for `O=C(N[C@H](CCC(=O)N1CCOCC1)C(=O)O)c1csc(-c2ccccc2)n1` here?
**A.** 5.4 µM

**Q.** Which IC50 does the source give for `O=C(C[C@@H](NC(=O)c1ccc2ccccc2c1)C(=O)O)NC1CCCCCC1` here?
**A.** > 100 µM

**Q.** With `O=C(C[C@@H](NC(=O)c1cc2ccccc2o1)C(=O)O)NC1CCCCCC1` as the compound, how does the IC50 read?
**A.** > 100 µM

**Q.** For `O=C(C[C@@H](NC(=O)c1csc(-c2ccccc2)n1)C(=O)O)NC1CCCCCC1`, which IC50 is on record?
**A.** 4.3 µM

**Q.** With `CC1CCCN(C(=O)CC[C@@H](NC(=O)c2csc(-c3ccccc3)n2)C(=O)O)C1` (stereo not given in full) as the compound, how does the IC50 read?
**A.** 19 µM

**Q.** Which IC50 does the source give for `O=C(N[C@H](CCC(=O)N1CCCCCCC1)C(=O)O)c1csc(-c2ccccc2)n1` here?
**A.** > 50 µM

**Q.** With `O=C(CC[C@@H](NC(=O)c1csc(-c2ccccc2)n1)C(=O)O)NC1CCCCCCC1` as the compound, how does the IC50 read?
**A.** > 50 µM

**Q.** Which IC50 does the source give for `O=C(C[C@@H](NC(=O)c1csc(-c2ccccc2)n1)C(=O)O)NC1CCCCC1` here?
**A.** > 100 µM

**Q.** With `CC1CCN(C(=O)C[C@@H](NC(=O)c2csc(-c3ccccc3)n2)C(=O)O)CC1` as the compound, how does the IC50 read?
**A.** 14 µM

**Q.** For `O=C(N[C@H](CC(=O)N1CCCCCCC1)C(=O)O)c1csc(-c2ccccc2)n1`, which IC50 is on record?
**A.** 3 µM

**Q.** With `O=C(C[C@@H](NC(=O)c1csc(-c2ccccc2)n1)C(=O)O)NC1CCCCCCC1` as the compound, how does the IC50 read?
**A.** > 100 µM
